Legend:
[1] = system: S. aureus DSM 20231; assay: fitness (endpoint OD595 vs no drug) (fraction); higher = more growth
Summary of the method: (§1)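 Volumes were 30 µl per well, or 55 µl for S. pneumoniae, in 384-well plates inoculated at OD595 0.01. Media were TSB, LB Lennox or CY at 37 °C, and OD595 was read every 30 min for 14 h with first-reading background subtraction. Fitness is the ratio of optical density at stationary-phase entry to the robust mean of no-drug controls. That ratio is capped at 1.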

[2] = system: S. aureus Newman; assay: as above
Summary of the method: as §1

[3] = system: S. pneumoniae D39V; assay: as above
Summary of the method: as §1

[4] = system: S. aureus DSM 20231; assay: Bliss interaction score (quartile over a dose matrix) (fitness difference); higher = more antagonism (negative = synergy)
Summary of the method: (§2)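 Each OD595 reading at entry into stationary phase was scaled to the robust mean of the untreated wells on its plate, with a ceiling of 1. These ratios define fitness, and single-drug fitness was inferred from combinations. The Bliss score compares observed fitness with the product-based expectation and is reported as quartiles across all replicate types, technical, biological and donor/recipient.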

[5] = system: B. subtilis 168; assay: as above
Summary of the method: as §2

[6] = system: S. aureus Newman; assay: as above
Summary of the method: as §2

[7] = system: S. pneumoniae D39V; assay: as above
Summary of the method: as §2

[8] = system: B. subtilis 168; assay: fitness (endpoint OD595 vs no drug) (fraction); higher = more growth
Summary of the method: as §1
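Wherever Bliss interaction score (quartile over a dose matrix) is given: first quartile when negative (synergy) and third quartile when positive (antagonism).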

CO/N=C(\C(=O)N[C@@H]1C(=O)N2C(C(=O)[O-])=C(C[N+]3(C)CCCC3)CS[C@H]12)c1csc(N)n1 [Cefepime] + Cc1onc(-c2ccccc2)c1C(=O)N[C@@H]1C(=O)N2[C@@H]1SC(C)(C)[C@@H]2C(=O)O [Oxacillin]
Details	fitness
[1], first compound 0.125 µg/mL, partner 0.0156 µg/mL	0.75
[1], first compound 0.125 µg/mL, partner 0.0312 µg/mL	0.641
[1], first compound 0.125 µg/mL, partner 0.0625 µg/mL	0.507
[1], first compound 0.25 µg/mL, partner 0.0156 µg/mL	0.826
[1], first compound 0.25 µg/mL, partner 0.0312 µg/mL	0.634
[1], first compound 0.25 µg/mL, partner 0.0625 µg/mL	0.578
[1], first compound 0.5 µg/mL, partner 0.0156 µg/mL	0.624
[1], first compound 0.5 µg/mL, partner 0.0312 µg/mL	0.565
[1], first compound 0.5 µg/mL, partner 0.0625 µg/mL	0.53
[2], first compound 0.125 µg/mL, partner 0.0156 µg/mL	0.828
[2], first compound 0.125 µg/mL, partner 0.0312 µg/mL	0.796
[2], first compound 0.125 µg/mL, partner 0.0625 µg/mL	0.71
[2], first compound 0.25 µg/mL, partner 0.0156 µg/mL	0.804
[2], first compound 0.25 µg/mL, partner 0.0312 µg/mL	0.753
[2], first compound 0.25 µg/mL, partner 0.0625 µg/mL	0.682
[2], first compound 0.5 µg/mL, partner 0.0156 µg/mL	0.768
[2], first compound 0.5 µg/mL, partner 0.0312 µg/mL	0.684
[2], first compound 0.5 µg/mL, partner 0.0625 µg/mL	0.667
[3], first compound 0.007 µg/mL, partner 0.005 µg/mL	0.997
[3], first compound 0.007 µg/mL, partner 0.01 µg/mL	≥ 1
[3], first compound 0.007 µg/mL, partner 0.02 µg/mL	0.986
[3], first compound 0.0078 µg/mL, partner 0.01 µg/mL	0.95
[3], first compound 0.0078 µg/mL, partner 0.02 µg/mL	0.825
[3], first compound 0.0078 µg/mL, partner 0.04 µg/mL	0.254
[3], first compound 0.014 µg/mL, partner 0.005 µg/mL	≥ 1
[3], first compound 0.014 µg/mL, partner 0.01 µg/mL	≥ 1
[3], first compound 0.014 µg/mL, partner 0.02 µg/mL	1
[3], first compound 0.0155 µg/mL, partner 0.01 µg/mL	0.86
[3], first compound 0.0155 µg/mL, partner 0.04 µg/mL	0.153
[3], first compound 0.028 µg/mL, partner 0.005 µg/mL	0.955
[3], first compound 0.028 µg/mL, partner 0.01 µg/mL	0.942
[3], first compound 0.028 µg/mL, partner 0.02 µg/mL	0.847
[3], first compound 0.031 µg/mL, partner 0.04 µg/mL	0.0453

Details	Bliss interaction score
[4]	-0.054
[5]	-0.0609
[6]	0.11
[7]	-0.138

CO/N=C(\C(=O)N[C@@H]1C(=O)N2C(C(=O)[O-])=C(C[N+]3(C)CCCC3)CS[C@H]12)c1csc(N)n1 [Cefepime] + Cn1nnc(-c2ccc(-c3ccc(N4C[C@H](CO)OC4=O)cc3F)cn2)n1 [Tedizolid]
fitness
Details	partner 0.03125 µg/mL	partner 0.0625 µg/mL	partner 0.125 µg/mL	partner 0.25 µg/mL	partner 0.5 µg/mL
[1], first compound 0.125 µg/mL	–	0.879	0.804	0.692	–
[1], first compound 0.25 µg/mL	–	0.796	0.738	0.601	–
[1], first compound 0.5 µg/mL	–	0.844	0.797	0.69	–
[2], first compound 0.125 µg/mL	–	0.858	0.837	–	–
[2], first compound 0.25 µg/mL	–	0.81	0.773	–	–
[2], first compound 0.5 µg/mL	–	0.728	0.717	–	–
[3], first compound 0.007 µg/mL	–	–	0.953	0.642	0.129
[3], first compound 0.0078 µg/mL	0.986	0.983	0.879	–	–
[3], first compound 0.014 µg/mL	–	–	0.95	0.626	0.149
[3], first compound 0.0155 µg/mL	0.969	0.974	0.895	–	–
[3], first compound 0.028 µg/mL	–	–	0.937	0.652	0.105
[3], first compound 0.031 µg/mL	0.971	0.948	0.888	–	–

Details	Bliss interaction score
[4]	0.122
[5]	0.12
[6]	-0.0634
[7]	0.237

CCCCCCCCCC(=O)N[C@@H](Cc1c[nH]c2ccccc12)C(=O)N[C@H](CC(N)=O)C(=O)N[C@@H](CC(=O)O)C(=O)N[C@@H]1C(=O)NCC(=O)N[C@@H](CCCN)C(=O)N[C@@H](CC(=O)O)C(=O)N[C@H](C)C(=O)N[C@@H](CC(=O)O)C(=O)NCC(=O)N[C@H](CO)C(=O)N[C@@H]([C@H](C)CC(=O)O)C(=O)N[C@@H](CC(=O)c2ccccc2N)C(=O)O[C@@H]1C [Daptomycin] + CC1=C\[C@@H](O)CC(=O)Cc2nc(co2)C(=O)N2CCC=C2C(=O)O[C@H](C(C)C)[C@H](C)/C=C/C(=O)NC\C=C\1 [Virginiamycin M1]
one replicate
Details	fitness
[1], first compound 0.125 µg/mL, partner 0.0625 µg/mL	0.898
[1], first compound 0.125 µg/mL, partner 0.125 µg/mL	≥ 1
[1], first compound 0.125 µg/mL, partner 0.5 µg/mL	0.906
[1], first compound 0.125 µg/mL, partner 1 µg/mL	0.887
[1], first compound 0.25 µg/mL, partner 0.0625 µg/mL	0.855
[1], first compound 0.25 µg/mL, partner 0.125 µg/mL	≥ 1
[1], first compound 0.25 µg/mL, partner 0.5 µg/mL	0.92
[1], first compound 0.25 µg/mL, partner 1 µg/mL	0.838
[1], first compound 0.5 µg/mL, partner 0.5 µg/mL	0.908
[1], first compound 0.5 µg/mL, partner 1 µg/mL	0.848
[2], first compound 0.5 µg/mL, partner 0.5 µg/mL	0.894
[2], first compound 0.5 µg/mL, partner 1 µg/mL	≥ 1
[2], first compound 0.5 µg/mL, partner 2 µg/mL	0.882
[2], first compound 1 µg/mL, partner 0.5 µg/mL	0.864
[2], first compound 1 µg/mL, partner 1 µg/mL	0.948
[2], first compound 1 µg/mL, partner 2 µg/mL	0.875
[2], first compound 2 µg/mL, partner 0.5 µg/mL	0.921
[2], first compound 2 µg/mL, partner 1 µg/mL	0.989
[2], first compound 2 µg/mL, partner 2 µg/mL	0.856
[3], first compound 1 µg/mL, partner 0.15 µg/mL	0.892
[3], first compound 1 µg/mL, partner 0.3 µg/mL	0.754
[3], first compound 2 µg/mL, partner 0.15 µg/mL	0.893
[3], first compound 2 µg/mL, partner 0.3 µg/mL	0.84
[3], first compound 4 µg/mL, partner 0.15 µg/mL	0.924
[3], first compound 4 µg/mL, partner 0.3 µg/mL	0.877
[8], first compound 1 µg/mL, partner 0.0625 µg/mL	0.702
[8], first compound 1 µg/mL, partner 0.125 µg/mL	0.698
[8], first compound 1 µg/mL, partner 0.25 µg/mL	0.765

fitness
Details	first compound 0.125 µg/mL	first compound 0.25 µg/mL	first compound 0.5 µg/mL	first compound 1 µg/mL	first compound 2 µg/mL	first compound 4 µg/mL
[1], partner 0.0625 µg/mL	–	–	≥ 1	≥ 1	0.966	–
[1], partner 0.125 µg/mL	–	–	≥ 1	≥ 1	0.959	–
[1], partner 0.25 µg/mL	0.944	0.918	≥ 1	≥ 1	0.972	–
[2], partner 0.0625 µg/mL	≥ 1	≥ 1	0.981	–	–	–
[2], partner 0.125 µg/mL	≥ 1	≥ 1	0.994	–	–	–
[2], partner 0.25 µg/mL	0.984	0.999	0.975	–	–	–
[3], partner 0.5 µg/mL	–	–	–	0.991	0.984	0.976
[3], partner 1 µg/mL	–	–	–	0.992	≥ 1	0.997
[3], partner 2 µg/mL	–	–	–	0.909	0.927	0.919
[8], partner 0.0625 µg/mL	0.946	0.924	0.894	–	–	–
[8], partner 0.125 µg/mL	0.92	0.931	0.862	–	–	–
[8], partner 0.25 µg/mL	0.93	0.934	0.891	–	–	–

Details	Bliss interaction score
[4]	0.0655
[5]	-0.0543
[6]	0.0243
[7]	0.0768

CCCCCCCCCC(=O)N[C@@H](Cc1c[nH]c2ccccc12)C(=O)N[C@H](CC(N)=O)C(=O)N[C@@H](CC(=O)O)C(=O)N[C@@H]1C(=O)NCC(=O)N[C@@H](CCCN)C(=O)N[C@@H](CC(=O)O)C(=O)N[C@H](C)C(=O)N[C@@H](CC(=O)O)C(=O)NCC(=O)N[C@H](CO)C(=O)N[C@@H]([C@H](C)CC(=O)O)C(=O)N[C@@H](CC(=O)c2ccccc2N)C(=O)O[C@@H]1C [Daptomycin] + CCN(CC)CCOC(=O)c1ccc(N)cc1 [Procaine]
fitness
Details	first compound 0.125 µg/mL	first compound 0.25 µg/mL	first compound 0.5 µg/mL	first compound 1 µg/mL	first compound 2 µg/mL	first compound 4 µg/mL
[1], partner 85.5 µg/mL	0.912	0.913	0.931	0.956	0.774	–
[1], partner 171 µg/mL	≥ 1	≥ 1	≥ 1	0.873	0.822	–
[1], partner 342 µg/mL	0.995	0.989	≥ 1	0.953	0.808	–
[2], partner 85.5 µg/mL	≥ 1	≥ 1	≥ 1	–	–	–
[2], partner 171 µg/mL	0.984	≥ 1	≥ 1	–	–	–
[2], partner 342 µg/mL	0.989	0.98	≥ 1	–	–	–
[3], partner 85.5 µg/mL	–	–	–	0.994	0.961	0.945
[3], partner 171 µg/mL	–	–	–	0.98	0.97	0.951
[3], partner 342 µg/mL	–	–	–	0.942	0.906	0.893
[8], partner 85.5 µg/mL	0.873	0.946	0.864	–	–	–
[8], partner 171 µg/mL	0.9	0.898	0.799	–	–	–
[8], partner 342 µg/mL	0.874	0.836	0.854	–	–	–

[8], first compound 1 µg/mL, one replicate
Details	fitness
partner 85.5 µg/mL	0.717
partner 171 µg/mL	0.685
partner 342 µg/mL	0.682

Details	Bliss interaction score
[4]	0.0381
[5]	-0.0699
[6]	0.0445
[7]	0.0859

CCCCCCCCCC(=O)N[C@@H](Cc1c[nH]c2ccccc12)C(=O)N[C@H](CC(N)=O)C(=O)N[C@@H](CC(=O)O)C(=O)N[C@@H]1C(=O)NCC(=O)N[C@@H](CCCN)C(=O)N[C@@H](CC(=O)O)C(=O)N[C@H](C)C(=O)N[C@@H](CC(=O)O)C(=O)NCC(=O)N[C@H](CO)C(=O)N[C@@H]([C@H](C)CC(=O)O)C(=O)N[C@@H](CC(=O)c2ccccc2N)C(=O)O[C@@H]1C [Daptomycin] + CN1C2=CC=CC=C2N=C3C1=CC=CC3=O [Pyocyanin]
fitness, one replicate
Details	partner 1.25 µg/mL	partner 2.5 µg/mL	partner 5 µg/mL
[1], first compound 0.125 µg/mL	0.798	0.814	0.577
[1], first compound 0.25 µg/mL	0.86	0.938	0.581
[8], first compound 1 µg/mL	0.697	0.652	0.552

fitness
Details	first compound 0.125 µg/mL	first compound 0.25 µg/mL	first compound 0.5 µg/mL	first compound 1 µg/mL	first compound 2 µg/mL	first compound 4 µg/mL
[1], partner 1.25 µg/mL	–	–	0.891	0.969	0.727	–
[1], partner 2.5 µg/mL	–	–	0.936	0.974	0.737	–
[1], partner 5 µg/mL	–	–	0.627	0.707	0.639	–
[2], partner 1.25 µg/mL	0.871	0.874	0.904	–	–	–
[2], partner 2.5 µg/mL	0.839	0.857	0.855	–	–	–
[3], partner 0.325 µg/mL	–	–	–	≥ 1	≥ 1	0.994
[3], partner 0.65 µg/mL	–	–	–	0.905	0.944	0.931
[3], partner 1.3 µg/mL	–	–	–	0.615	0.604	0.582
[8], partner 1.25 µg/mL	0.868	0.89	0.846	–	–	–
[8], partner 2.5 µg/mL	0.846	0.817	0.803	–	–	–
[8], partner 5 µg/mL	0.718	0.755	0.679	–	–	–

Details	Bliss interaction score
[4]	-0.0886
[5]	-0.0565
[6]	0.0899
[7]	-0.0802
